Measurements: PubChem BioAssay (NCI)
Several values for one entry are separate records, joined by “and”; a condition that tells them apart may be missing. Equal entries are not always repeated.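 96-well plates; 48 h exposure; 5 concentrations. Endpoints by linear interpolation between flanking doses. Not reached: highest tested concentration assigned. GI50 is the concentration that inhibits growth by half. Definition used: TGI = concentration required for complete inhibition of growth.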

Key:
Assay in all cases: growth of human tumour cells (NCI), 48 h
CCRF-CEM leukemia = test system: CCRF-CEM leukemia
SNB-75 CNS = test system: SNB-75 CNS
MOLT-4 leukemia = test system: MOLT-4 leukemia
CAKI-1 renal = test system: CAKI-1 renal
SF-539 CNS = test system: SF-539 CNS
ACHN renal = test system: ACHN renal
HL-60(TB) leukemia = test system: HL-60(TB) leukemia
U251 CNS = test system: U251 CNS
HCC-2998 colon = test system: HCC-2998 colon
M14 melanoma = test system: M14 melanoma
IGROV1 ovarian = test system: IGROV1 ovarian
NCI-H522 lung = test system: NCI-H522 lung
HOP-62 NSCLC = test system: HOP-62 NSCLC
TK-10 renal = test system: TK-10 renal
COLO 205 colon = test system: COLO 205 colon
SR leukemia = test system: SR leukemia
UACC-62 melanoma = test system: UACC-62 melanoma
OVCAR-4 ovarian = test system: OVCAR-4 ovarian
KM12 colon = test system: KM12 colon
MALME-3M melanoma = test system: MALME-3M melanoma
PC-3 prostate = test system: PC-3 prostate
HOP-92 NSCLC = test system: HOP-92 NSCLC
MDA-MB-435 = test system: MDA-MB-435
UACC-257 melanoma = test system: UACC-257 melanoma
NCI-H460 lung = test system: NCI-H460 lung
HT29 colon = test system: HT29 colon
OVCAR-5 ovarian = test system: OVCAR-5 ovarian
HCT-15 colon = test system: HCT-15 colon
T-47D breast = test system: T-47D breast
HCT-116 colon = test system: HCT-116 colon
MDA-MB-231 breast = test system: MDA-MB-231 breast
RPMI-8226 leukemia = test system: RPMI-8226 leukemia
SN12C renal = test system: SN12C renal
NCI-H226 lung = test system: NCI-H226 lung
RXF 393 renal = test system: RXF 393 renal
NCI/ADR-RES ovarian = test system: NCI/ADR-RES ovarian
SF-295 CNS = test system: SF-295 CNS
786-0 renal = test system: 786-0 renal
A498 renal = test system: A498 renal
EKVX NSCLC = test system: EKVX NSCLC
SK-MEL-28 melanoma = test system: SK-MEL-28 melanoma
MCF7 breast = test system: MCF7 breast
HS 578T breast = test system: HS 578T breast
DU-145 prostate = test system: DU-145 prostate
OVCAR-3 ovarian = test system: OVCAR-3 ovarian
LOX IMVI melanoma = test system: LOX IMVI melanoma
SK-MEL-5 melanoma = test system: SK-MEL-5 melanoma
SK-OV-3 ovarian = test system: SK-OV-3 ovarian
SNB-19 CNS = test system: SNB-19 CNS
NCI-H23 lung = test system: NCI-H23 lung
BT-549 breast = test system: BT-549 breast
K-562 leukemia = test system: K-562 leukemia
SW-620 colon = test system: SW-620 colon
SK-MEL-2 melanoma = test system: SK-MEL-2 melanoma
OVCAR-8 ovarian = test system: OVCAR-8 ovarian
SF-268 CNS = test system: SF-268 CNS
UO-31 renal = test system: UO-31 renal
A549 NSCLC = test system: A549 NSCLC

CC(C)C[C@@H](NC(=O)[C@@H](Cc1ccccc1)NC(=O)c1cnccn1)B1O[C@H]2[C@H](O)[C@@H](C(=O)NCCCC[C@@H]3NC(=O)[C@@H](Cc4ccccc4)NC(=O)[C@H](CC(=O)O)NC(=O)CNC(=O)[C@H](CCCN=C(N)N)NC3=O)O[C@@H](CN)[C@H]2O1
GI50 (CCRF-CEM leukemia): 3.47 nM and 5 nM
GI50 (SNB-75 CNS): 18.8 nM
TGI (SNB-75 CNS): 51.6 nM
GI50 (MOLT-4 leukemia): 2.74 nM
TGI (MOLT-4 leukemia): 9.31 nM
GI50 (CAKI-1 renal): 7.68 nM and 14.8 nM
TGI (CAKI-1 renal): 52.5 nM and 90.5 nM
GI50 (SF-539 CNS): 3.19 nM and 5 nM
TGI (SF-539 CNS): 15 nM and 12.3 nM
GI50 (ACHN renal): 4.49 nM and 5 nM
TGI (ACHN renal): 494 nM and 153 nM
GI50 (HL-60(TB) leukemia): 10.2 nM and 5 nM
TGI (HL-60(TB) leukemia): 69.8 nM and 74.3 nM
GI50 (U251 CNS): 32.8 nM and 5.92 nM
TGI (U251 CNS): 218 nM and 43.1 nM
GI50 (HCC-2998 colon): 16 nM and 7.99 nM
TGI (HCC-2998 colon): 32.3 nM and 16.5 nM
GI50 (M14 melanoma): 3.92 nM and 5 nM
TGI (M14 melanoma): 116 nM and 14.1 nM
GI50 (IGROV1 ovarian): 31.2 nM and 21.4 nM
TGI (IGROV1 ovarian): 254 nM and 1030 nM
GI50 (NCI-H522 lung): 3.3 nM and < 5 nM
TGI (NCI-H522 lung): 11.5 nM and < 5 nM
GI50 (HOP-62 NSCLC): 12.5 nM and 18.9 nM
GI50 (TK-10 renal): 3.08 nM and 5 nM
TGI (TK-10 renal): 24.9 nM and 8.51 nM
GI50 (COLO 205 colon): 26.2 nM and 5 nM
TGI (COLO 205 colon): 373 nM and 119 nM
GI50 (SR leukemia): 2.61 nM
GI50 (UACC-62 melanoma): 4.39 nM and 5 nM
TGI (UACC-62 melanoma): 40.8 nM and 14 nM
GI50 (OVCAR-4 ovarian): 9.35 nM and 5 nM
TGI (OVCAR-4 ovarian): 451 nM and 1090 nM
GI50 (KM12 colon): 13.1 nM and 5.7 nM
TGI (KM12 colon): 43.7 nM and 17.7 nM
GI50 (MALME-3M melanoma): 4.57 nM and 5 nM
TGI (MALME-3M melanoma): 127 nM and 591 nM
GI50 (PC-3 prostate): 27.3 nM and 15.3 nM
TGI (PC-3 prostate): 389 nM and 563 nM
GI50 (HOP-92 NSCLC): 10.8 nM and 5.48 nM
TGI (HOP-92 NSCLC): 56.5 nM and 23.6 nM
GI50 (MDA-MB-435): 2.87 nM and < 5 nM
TGI (MDA-MB-435): 8.91 nM and < 5 nM
GI50 (UACC-257 melanoma): 13.5 nM and 5 nM
TGI (UACC-257 melanoma): 81.2 nM and 18.3 nM
GI50 (NCI-H460 lung): 34.4 nM and 17.9 nM
TGI (NCI-H460 lung): 135 nM and 185 nM
GI50 (HT29 colon): 4.18 nM and 5 nM
TGI (HT29 colon): 32.5 nM and 7.63 nM
GI50 (OVCAR-5 ovarian): 13.5 nM and 19.6 nM
TGI (OVCAR-5 ovarian): 97.8 nM and 799 nM
GI50 (HCT-15 colon): 11.3 nM and 7.03 nM
TGI (HCT-15 colon): 65.9 nM and 37.6 nM
GI50 (T-47D breast): 5.98 nM and 5 nM
TGI (T-47D breast): 64.8 nM and 25 nM
GI50 (HCT-116 colon): 3.39 nM and 5 nM
TGI (HCT-116 colon): 18.2 nM and 10.3 nM
GI50 (MDA-MB-231 breast): 12.4 nM and 8.28 nM
TGI (MDA-MB-231 breast): 57.4 nM and 69.2 nM
GI50 (RPMI-8226 leukemia): 3.73 nM and 5 nM
TGI (RPMI-8226 leukemia): 267 nM and 1040 nM
GI50 (SN12C renal): 11.7 nM and 13 nM
TGI (SN12C renal): 55 nM and 485 nM
GI50 (NCI-H226 lung): 2.78 nM
TGI (NCI-H226 lung): 7.7 nM
GI50 (RXF 393 renal): 3.45 nM and < 5 nM
TGI (RXF 393 renal): 13.5 nM and < 5 nM
GI50 (NCI/ADR-RES ovarian): 98.4 nM and 84.4 nM
TGI (NCI/ADR-RES ovarian): 586 nM
GI50 (SF-295 CNS): 4.86 nM and 5 nM
TGI (SF-295 CNS): 20 nM and 14.7 nM
GI50 (786-0 renal): 4.65 nM and 5 nM
GI50 (A498 renal): 3.09 nM and 5 nM
TGI (A498 renal): 12.7 nM and 10.6 nM
GI50 (EKVX NSCLC): 23.9 nM and 17.1 nM
TGI (EKVX NSCLC): 568 nM and 545 nM
GI50 (SK-MEL-28 melanoma): 7.66 nM and 5 nM
TGI (SK-MEL-28 melanoma): 285 nM and 235 nM
GI50 (MCF7 breast): 4.13 nM and 5 nM
TGI (MCF7 breast): 789 nM
GI50 (HS 578T breast): 4.13 nM and 5 nM
GI50 (DU-145 prostate): 6.62 nM and 5 nM
TGI (DU-145 prostate): 5360 nM
GI50 (OVCAR-3 ovarian): 3.39 nM and 5 nM
TGI (OVCAR-3 ovarian): 10.6 nM and 10.4 nM
GI50 (LOX IMVI melanoma): 3.97 nM and 5 nM
TGI (LOX IMVI melanoma): 15.9 nM and 5.8 nM
GI50 (SK-MEL-5 melanoma): 4.57 nM and 5 nM
TGI (SK-MEL-5 melanoma): 18.8 nM and 8.55 nM
GI50 (SK-OV-3 ovarian): 35.4 nM and 14.8 nM
TGI (SK-OV-3 ovarian): 296 nM and 941 nM
GI50 (SNB-19 CNS): 13.6 nM and 5 nM
TGI (SNB-19 CNS): 5120 nM
GI50 (NCI-H23 lung): 10.8 nM and 5 nM
TGI (NCI-H23 lung): 94.3 nM and 53.7 nM
GI50 (BT-549 breast): 3 nM and 5 nM
TGI (BT-549 breast): 11.2 nM and 11.3 nM
GI50 (K-562 leukemia): 8.8 nM and 5 nM
GI50 (SW-620 colon): 4.54 nM and 5 nM
TGI (SW-620 colon): 239 nM and 652 nM
GI50 (SK-MEL-2 melanoma): 7.02 nM and 5 nM
TGI (SK-MEL-2 melanoma): 60.4 nM and 12.3 nM
GI50 (OVCAR-8 ovarian): 36.5 nM and 13.9 nM
TGI (OVCAR-8 ovarian): 622 nM and 98.7 nM
GI50 (SF-268 CNS): 8.77 nM and 5.35 nM
TGI (SF-268 CNS): 38.7 nM and 57.4 nM
GI50 (UO-31 renal): 8.68 nM and 5 nM
TGI (UO-31 renal): 89 nM and 36 nM
GI50 (A549 NSCLC): 28.8 nM and 14.8 nM
TGI (A549 NSCLC): 658 nM
